# Tests used:
# Assay in all cases: Test B pre-/postemergence plant response
# Type in all cases: in vivo
# [1] = test system: downy bromegrass (Bromus tectorum)
# How it was run: (§1)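 Steps: sow seed in loam–sand soil and spray preemergence, or grow plants in peat-based medium to 1–4 leaves (2–18 cm) and spray postemergence; formulation is non-phytotoxic solvent plus surfactant; hold in greenhouse 13–15 days; score visually vs controls, 0 = no effect, 100 = complete control.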
# [2] = test system: large crabgrass (Digitaria sanguinalis)
# How it was run: as §1
# wild oat (Avena fatua) = test system: wild oat (Avena fatua)
# How it was run: as §1
# [3] = test system: morningglory (Ipomoea coccinea)
# How it was run: as §1
# [4] = test system: yellow nutsedge (Cyperus esculentus)
# How it was run: as §1
# [5] = test system: goosegrass (Eleusine indica)
# How it was run: as §1
# [6] = test system: johnsongrass (Sorghum halepense)
# How it was run: as §1
# [7] = test system: velvetleaf (Abutilon theophrasti)
# How it was run: as §1
# [8] = test system: lambsquarters (Chenopodium album)
# How it was run: as §1
# kochia (Kochia scoparia) = details: Preemergence
# How it was run: as §1
# soybean (Glycine max) = test system: soybean (Glycine max)
# How it was run: as §1
# [9] = test system: pigweed (Amaranthus retroflexus)
# How it was run: as §1
# [10] = test system: woolly cupgrass (Eriochloa villosa)
# How it was run: as §1
# [11] = test system: blackgrass (Alopecurus myosuroides)
# How it was run: as §1
# corn (Zea mays) = test system: corn (Zea mays)
# How it was run: as §1
# [12] = test system: green foxtail (Setaria viridis)
# How it was run: as §1
# [13] = test system: Surinam grass (Brachiaria decumbens)
# How it was run: as §1
# [14] = 250 g ai/ha, Preemergence, 0 to 100 scale
# [15] = Postemergence, 31 g ai/ha, scale 0 to 100 (0 no effect, 100 complete control)
# [16] = Postemergence, 62 g ai/ha, scale 0 (no effect) to 100 (complete control), 13 to 15 days
# [17] = Postemergence, 125 g ai/ha, visual rating after 13 to 15 days, scale 0 (no effect) to 100 (complete control)
# [18] = Postemergence, 250 g ai/ha, scale 0 to 100
# [19] = Preemergence, 31 g ai/ha, scale 0 to 100 (0 no effect, 100 complete control)
# [20] = Preemergence, 62 g ai/ha, scale 0 to 100, 0 no effect, 100 complete control
# [21] = Preemergence, 125 g ai/ha, 0 to 100 scale
smiles,measurement,setting,value
Cc1ccc(C)c(-n2c(-c3ccccc3)ncc(C(=O)C3=C(O)CCCC3=O)c2=O)c1 [Compound 29],"Plant response rating, Bromegrass, Downy",[1]; [14],5
same,"Plant response rating, Bromegrass, Downy",[1]; [15],5
same,"Plant response rating, Bromegrass, Downy",[1]; [16],10
same,"Plant response rating, Bromegrass, Downy",[1]; [17],40
same,"Bromegrass, Downy plant response rating",[1]; [18],45
same,"Plant response rating, Bromegrass, Downy",[1]; [19],0
same,"Plant response rating, Bromegrass, Downy",[1]; [20],0
same,"Bromegrass, Downy plant response rating",[1]; [21],0
same,"Plant response rating, Crabgrass, Large",[2]; [14],100
same,"Plant response rating, Crabgrass, Large",[2]; [15],45
same,"Plant response rating, Crabgrass, Large",[2]; [16],50
same,"Plant response rating, Crabgrass, Large",[2]; [17],55
same,"Crabgrass, Large plant response rating",[2]; [18],80
same,"Plant response rating, Crabgrass, Large",[2]; [19],98
same,"Plant response rating, Crabgrass, Large",[2]; [20],100
same,"Crabgrass, Large plant response rating",[2]; [21],100
same,"Plant response rating, Oat, Wild",wild oat (Avena fatua); [14],50
same,"Plant response rating, Oat, Wild",wild oat (Avena fatua); [16],50
same,"Plant response rating, Oat, Wild",wild oat (Avena fatua); [17],60
same,"Oat, Wild plant response rating",wild oat (Avena fatua); [18],80
same,"Plant response rating, Oat, Wild",wild oat (Avena fatua); [19],0
same,"Plant response rating, Oat, Wild",wild oat (Avena fatua); [20],0
same,"Oat, Wild plant response rating",wild oat (Avena fatua); [21],45
same,"Plant response rating, Morningglory",[3]; [14],100
same,"Plant response rating, Morningglory",[3]; [16],70
same,"Plant response rating, Morningglory",[3]; [17],80
same,Morningglory plant response rating,[3]; [18],98
same,"Plant response rating, Morningglory",[3]; [19],100
same,"Plant response rating, Morningglory",[3]; [20],100
same,Morningglory plant response rating,[3]; [21],100
same,"Plant response rating, Nutsedge, Yellow",[4]; [14],85
same,"Plant response rating, Nutsedge, Yellow",[4]; [16],50
same,"Plant response rating, Nutsedge, Yellow",[4]; [17],70
same,"Nutsedge, Yellow plant response rating",[4]; [18],70
same,"Plant response rating, Nutsedge, Yellow",[4]; [19],0
same,"Plant response rating, Nutsedge, Yellow",[4]; [20],30
same,"Nutsedge, Yellow plant response rating",[4]; [21],60
same,"Plant response rating, Goosegrass",[5]; [14],100
same,"Plant response rating, Goosegrass",[5]; [16],85
same,"Plant response rating, Goosegrass",[5]; [17],85
same,Goosegrass plant response rating,[5]; [18],95
same,"Plant response rating, Goosegrass",[5]; [19],95
same,Goosegrass plant response rating,[5]; [21],100
same,"Plant response rating, Johnsongrass",[6]; [14],90
same,"Plant response rating, Johnsongrass",[6]; [16],20
same,"Plant response rating, Johnsongrass",[6]; [17],40
same,Johnsongrass plant response rating,[6]; [18],45
same,"Plant response rating, Johnsongrass",[6]; [19],0
same,"Plant response rating, Johnsongrass",[6]; [20],5
same,Johnsongrass plant response rating,[6]; [21],30
same,"Plant response rating, Velvetleaf",[7]; [14],100
same,"Plant response rating, Velvetleaf",[7]; [16],55
same,"Plant response rating, Velvetleaf",[7]; [17],80
same,Velvetleaf plant response rating,[7]; [18],98
same,"Plant response rating, Velvetleaf",[7]; [19],10
same,"Plant response rating, Velvetleaf",[7]; [20],90
same,Velvetleaf plant response rating,[7]; [21],100
same,"Plant response rating, Lambsquarters",[8]; [14],100
same,"Plant response rating, Lambsquarters",[8]; [16],85
same,"Plant response rating, Lambsquarters",[8]; [17],90
same,Lambsquarters plant response rating,[8]; [18],98
same,"Plant response rating, Lambsquarters",[8]; [19],100
same,"Plant response rating, Lambsquarters",[8]; [20],100
same,Lambsquarters plant response rating,[8]; [21],100
same,"Plant response rating, Kochia","kochia (Kochia scoparia); 250 g ai/ha, 0 to 100 scale",100
same,"Plant response rating, Kochia","kochia (Kochia scoparia); 31 g ai/ha, scale 0 to 100 (0 no effect, 100 complete control)",98
same,"Plant response rating, Kochia","kochia (Kochia scoparia); 62 g ai/ha, scale 0 to 100, 0 no effect, 100 complete control",100
same,Kochia plant response rating,"kochia (Kochia scoparia); 125 g ai/ha, 0 to 100 scale",100
same,"Plant response rating, Soybean",soybean (Glycine max); [14],95
same,"Plant response rating, Soybean",soybean (Glycine max); [16],95
same,"Plant response rating, Soybean",soybean (Glycine max); [17],98
same,Soybean plant response rating,soybean (Glycine max); [18],98
same,"Plant response rating, Soybean",soybean (Glycine max); [19],20
same,"Plant response rating, Soybean",soybean (Glycine max); [20],85
same,Soybean plant response rating,soybean (Glycine max); [21],90
same,"Plant response rating, Pigweed",[9]; [14],100
same,"Plant response rating, Pigweed",[9]; [16],65
same,"Plant response rating, Pigweed",[9]; [17],80
same,Pigweed plant response rating,[9]; [18],85
same,"Plant response rating, Pigweed",[9]; [19],100
same,"Plant response rating, Pigweed",[9]; [20],100
same,Pigweed plant response rating,[9]; [21],100
same,"Plant response rating, Cupgrass, Woolly",[10]; [14],90
same,"Plant response rating, Cupgrass, Woolly",[10]; [15],80
same,"Plant response rating, Cupgrass, Woolly",[10]; [16],85
same,"Plant response rating, Cupgrass, Woolly",[10]; [17],85
same,"Cupgrass, Woolly plant response rating",[10]; [18],85
same,"Plant response rating, Cupgrass, Woolly",[10]; [19],5
same,"Plant response rating, Cupgrass, Woolly",[10]; [20],10
same,"Cupgrass, Woolly plant response rating",[10]; [21],55
same,"Plant response rating, Blackgrass",[11]; [14],50
same,"Plant response rating, Blackgrass",[11]; [15],10
same,"Plant response rating, Blackgrass",[11]; [16],20
same,"Plant response rating, Blackgrass",[11]; [17],40
same,Blackgrass plant response rating,[11]; [18],50
same,"Plant response rating, Blackgrass",[11]; [19],5
same,"Plant response rating, Blackgrass",[11]; [20],5
same,Blackgrass plant response rating,[11]; [21],50
same,"Plant response rating, Corn",corn (Zea mays); [14],0
same,"Plant response rating, Corn",corn (Zea mays); [15],20
same,"Plant response rating, Corn",corn (Zea mays); [16],35
same,"Plant response rating, Corn",corn (Zea mays); [17],50
same,Corn plant response rating,corn (Zea mays); [18],60
same,"Plant response rating, Corn",corn (Zea mays); [19],0
same,"Plant response rating, Corn",corn (Zea mays); [20],0
same,Corn plant response rating,corn (Zea mays); [21],0
same,"Plant response rating, Foxtail, Green",[12]; [14],100
same,"Plant response rating, Foxtail, Green",[12]; [15],60
same,"Plant response rating, Foxtail, Green",[12]; [16],75
same,"Plant response rating, Foxtail, Green",[12]; [17],75
same,"Foxtail, Green plant response rating",[12]; [18],90
same,"Plant response rating, Foxtail, Green",[12]; [19],0
same,"Plant response rating, Foxtail, Green",[12]; [20],40
same,"Foxtail, Green plant response rating",[12]; [21],100
same,"Plant response rating, Surinam Grass",[13]; [14],95
same,"Plant response rating, Surinam Grass",[13]; [16],50
same,"Plant response rating, Surinam Grass",[13]; [17],70
same,Surinam Grass plant response rating,[13]; [18],85
same,"Plant response rating, Surinam Grass",[13]; [19],0
same,"Plant response rating, Surinam Grass",[13]; [20],20
same,Surinam Grass plant response rating,[13]; [21],90

# Source: patent US8952024B2, “Herbicidal pyrimidone derivatives” (E I du Pont de Nemours and Company, priority 2009, dated 2015)
